We go through 19 molecules from US7858611B2, “Neurogenesis by modulating angiotensin” (BrainCells Inc., priority 2006, dated 2010).

The test system of assay [1] is human neural stem cells (hNSCs). The assay is described as follows: Neuronal differentiation of human neural stem cells (TUJ-1 antibody staining). Format: cell-based. The settings on record: for EC50: Homo sapiens, Neural stem cell, read-out: EC50 for neuronal differentiation; for effect on neuronal differentiation: dose response.
From the text: (§1) Mitogen-free test media with a positive control for neuronal differentiation was used along with basal media without growth factors as a negative control.
as §1, §1, §1, §1
Human neural stem cells (hNSCs) were isolated and grown in monolayer culture, plated, treated with varying concentrations of benazepril (test compound), and stained with TUJ-1 antibody, as described above. Mitogen-free test media with a positive control for neuronal differentiation was used along with basal media without growth factors as a negative control.
Human neural stem cells (hNSCs) were isolated and grown in monolayer culture, plated, treated with varying concentrations of trandolapril (test compound), and stained with TUJ-1 antibody, as described in above. Mitogen-free test media with a positive control for neuronal differentiation was used along with basal media without growth factors as a negative control.
Human neural stem cells (hNSCs) were isolated and grown in monolayer culture, plated, treated with varying concentrations of candesartan (test compound), and stained with TUJ-1 antibody, as described in above. Mitogen-free test media with a positive control for neuronal differentiation was used along with basal media without growth factors as a negative control.
Human neural stem cells (hNSCs) were isolated and grown in monolayer culture, plated, treated with varying concentrations of telmisartan (test compound), and stained with TUJ-1 antibody, as described in above. Mitogen-free test media with a positive control for neuronal differentiation was used along with basal media without growth factors as a negative control.
Human neural stem cells (hNSCs) were isolated and grown in monolayer culture, plated, treated with varying concentrations of ibudilast and/or captopril (test compounds), and stained with TUJ-1 antibody, as described above. Mitogen-free test media with a positive control for neuronal differentiation was used along with basal media without growth factors as a negative control.
Human neural stem cells (hNSCs) were isolated and grown in monolayer culture, plated, treated with varying concentrations of enoximone and/or captopril (test compounds), and stained with TUJ-1 antibody, as described above. Mitogen-free test media with a positive control for neuronal differentiation was used along with basal media without growth factors as a negative control.
Human neural stem cells (hNSCs) were isolated and grown in monolayer culture, plated, treated with varying concentrations of ibudilast and/or candesartan (test compounds), and stained with TUJ-1 antibody, as described above. Mitogen-free test media with a positive control for neuronal differentiation was used along with basal media without growth factors as a negative control.
Human neural stem cells (hNSCs) were isolated and grown in monolayer culture, plated, treated with varying concentrations of baclofen and/or captopril (test compounds), and stained with TUJ-1 antibody, as described above. Mitogen-free test media with a positive control for neuronal differentiation was used along with basal media without growth factors as a negative control.
Human neural stem cells (hNSCs) were isolated and grown in monolayer culture, plated, treated with varying concentrations of donepezil and/or captopril (test compounds), and stained with TUJ-1 antibody, as described above.

Assay [2] addresses human mGlu2 receptors (Homo sapiens, UniProt Q14416). The conditions noted are these: in vitro; low nanomolar range; read-out: EC50 against human mGlu2 receptors; cited from earlier work.
Assay [3] concerns the target human mGlu3 receptors (Homo sapiens, UniProt Q14832). The conditions noted are these: in vitro; low nanomolar range; read-out: EC50 against human mGlu3 receptors; cited from earlier work.
The target of assay [4] is mGluR2 (Homo sapiens, UniProt Q14416). The settings on record: read-out: IC50 against mGluR2; cited from earlier work.
mGluR2, sequence (Q14416 19-872): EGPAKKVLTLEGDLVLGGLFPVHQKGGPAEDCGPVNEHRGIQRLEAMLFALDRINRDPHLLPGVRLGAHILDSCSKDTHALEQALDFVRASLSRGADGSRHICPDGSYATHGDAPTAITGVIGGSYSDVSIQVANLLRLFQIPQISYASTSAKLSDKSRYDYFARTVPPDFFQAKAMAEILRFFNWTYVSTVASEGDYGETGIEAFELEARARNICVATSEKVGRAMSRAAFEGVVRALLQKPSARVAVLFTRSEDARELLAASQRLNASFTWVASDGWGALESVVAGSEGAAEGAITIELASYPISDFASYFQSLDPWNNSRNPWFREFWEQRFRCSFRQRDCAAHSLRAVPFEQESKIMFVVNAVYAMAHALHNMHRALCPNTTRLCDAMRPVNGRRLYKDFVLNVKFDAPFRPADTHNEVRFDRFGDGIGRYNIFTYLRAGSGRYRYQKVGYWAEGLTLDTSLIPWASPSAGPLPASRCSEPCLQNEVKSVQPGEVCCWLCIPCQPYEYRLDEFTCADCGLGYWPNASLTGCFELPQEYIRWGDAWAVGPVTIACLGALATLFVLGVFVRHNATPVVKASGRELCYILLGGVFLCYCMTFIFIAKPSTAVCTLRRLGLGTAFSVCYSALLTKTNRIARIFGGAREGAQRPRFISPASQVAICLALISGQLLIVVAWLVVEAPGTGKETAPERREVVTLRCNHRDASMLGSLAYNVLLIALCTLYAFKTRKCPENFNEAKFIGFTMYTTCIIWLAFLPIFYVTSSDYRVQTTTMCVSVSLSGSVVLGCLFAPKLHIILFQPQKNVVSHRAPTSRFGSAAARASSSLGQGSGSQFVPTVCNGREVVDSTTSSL
Assay [5] addresses mGluR3 (Homo sapiens, UniProt Q14832). The conditions noted are these: read-out: IC50 against mGluR3; cited from earlier work.
The subject of assay [6] is Group I or Group III receptors. The settings on record: at sub-mM concentrations; cited from earlier work.
In assay [7] the test system is KA, AMPA, and NMDA iGlu receptors. The conditions noted are these: cited from earlier work.
Assay [8] has as its system mGlu7 and mGlu8. The conditions noted are these: at higher concentrations (e.g., above 1 μM); cited from earlier work.
Setting [9] is: agent alone, percentage of neuronal positive control, basal media values subtracted.
Setting [10] is: agent alone, FIG. 6-9, percentage of neuronal positive control, basal media values subtracted.

Where two headings read alike, the source gives them in different places.

human mGlu2 receptors, sequence (Q14416 19-872): as above
human mGlu3 receptors, sequence (Q14832 23-879): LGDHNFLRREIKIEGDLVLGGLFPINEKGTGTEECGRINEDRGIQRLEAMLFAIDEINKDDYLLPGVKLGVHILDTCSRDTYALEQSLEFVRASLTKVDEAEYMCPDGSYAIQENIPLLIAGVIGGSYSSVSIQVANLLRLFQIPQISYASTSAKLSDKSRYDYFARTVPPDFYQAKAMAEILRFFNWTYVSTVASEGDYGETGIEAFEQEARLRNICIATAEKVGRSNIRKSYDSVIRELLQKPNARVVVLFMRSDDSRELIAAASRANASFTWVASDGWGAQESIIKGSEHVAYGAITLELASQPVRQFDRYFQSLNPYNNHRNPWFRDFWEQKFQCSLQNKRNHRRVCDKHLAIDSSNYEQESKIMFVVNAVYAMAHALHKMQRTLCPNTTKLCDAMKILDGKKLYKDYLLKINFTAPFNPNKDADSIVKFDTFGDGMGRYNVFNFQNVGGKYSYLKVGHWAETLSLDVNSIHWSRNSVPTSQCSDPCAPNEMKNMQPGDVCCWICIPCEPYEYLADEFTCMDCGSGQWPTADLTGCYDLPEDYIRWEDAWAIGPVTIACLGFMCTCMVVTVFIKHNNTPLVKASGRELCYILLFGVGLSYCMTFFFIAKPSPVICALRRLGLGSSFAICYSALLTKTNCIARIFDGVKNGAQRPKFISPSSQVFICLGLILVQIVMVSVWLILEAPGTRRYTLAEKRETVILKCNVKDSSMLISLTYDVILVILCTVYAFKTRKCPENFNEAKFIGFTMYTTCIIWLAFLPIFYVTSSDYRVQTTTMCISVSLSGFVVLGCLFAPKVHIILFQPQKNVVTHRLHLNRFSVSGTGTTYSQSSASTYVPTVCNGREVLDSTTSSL
mGluR3, sequence (Q14832 23-879): as above

In the case of `COc1cc2c(cc1OC)C(=O)C(CC1CCN(Cc3ccccc3)CC1)C2` (stereo not shown) [donepezil], the 50% effective concentration (EC50) in assay [1] was 2 µM.
On to `CCOC(=O)[C@H](CCc1ccccc1)N[C@@H](C)C(=O)N1CCC[C@H]1C(=O)O` [enalapril, (S)-1-[N-[1-(ethoxycarbonyl)-3-phenylpropyl]-1-alanyl]-1-proline], for which the EC50 in assay [1] (setting [9]) was 0.5 µM. In addition, the “effect on neuronal differentiation” value in assay [1] (agent alone) is given as “promoted neuronal differentiation”.
As for `CCOc1nc2cccc(C(=O)O)c2n1Cc1ccc(-c2ccccc2-c2nnn[nH]2)cc1` [candesartan, 2-ethoxy-3-[[4-[2-(2H-tetrazol-5-yl)phenyl]phenyl]methyl]-3H-benzoimidazole-4-carboxylic acid], the figures for the EC50 in assay [1] (setting [10]) and in assay [1] (setting [9]) were ~0.84 µM and 2.2 µM, respectively. Also, in assay [1] (agent alone), the “effect on neuronal differentiation” value is given as “promoted neuronal differentiation”.
As to `CCOC(=O)[C@H](CCc1ccccc1)N[C@H]1CCc2ccccc2N(CC(=O)O)C1=O` [benazepril, 2-[4-(1-ethoxycarbonyl-3-phenyl-propyl)amino-5-oxo-6-azabicyclo[5.4.0]undeca-7,9,11-trien-6-yl]acetic acid], the half-maximal effective concentration (EC50) in assay [1] (setting [10]) was 3.3 µM. The “effect on neuronal differentiation” value in assay [1] (agent alone) is listed as “promoted neuronal differentiation”.
Take `CCCCc1nc(Cl)c(CO)n1Cc1ccc(-c2ccccc2-c2nnn[nH]2)cc1` [losartan, [2-butyl-5-chloro-3-[[4-[2-(2H-tetrazol-5-yl)phenyl]phenyl]methyl]-3H-imidazol-4-yl]methanol]: in assay [1] (setting [9]), the EC50 was determined as 0.9 µM. Besides, the “effect on neuronal differentiation” value in assay [1] (agent alone) is “promoted neuronal differentiation”.
With `Cn1c(=O)c2[nH]cnc2n(C)c1=O` [theophylline], in assay [1] (setting [9]), the EC50 amounted to 16.4 µM.
`N[C@@]1(C(=O)O)CO[C@H]2[C@H](C(=O)O)[C@H]21` [LY379268, (−)-2-oxa-4-aminobicyclohexane-4,6-dicarboxylic acid]: the EC50 in assay [2] and in assay [3] was < 0.01 µM each time.
As to `CCCc1nc2c(C)cc(-c3nc4ccccc4n3C)cc2n1Cc1ccc(-c2ccccc2C(=O)O)cc1` [telmisartan, 2-[4-[[4-methyl-6-(1-methylbenzoimidazol-2-yl)-2-propyl-benzoimidazol-1-yl]methyl]phenyl]benzoic acid], the EC50 is ~0.03 µM in assay [1] (setting [10]) and 0.06 µM in assay [1] (setting [9]). Also, the “effect on neuronal differentiation” value in assay [1] (agent alone) is “promoted neuronal differentiation”.
As for `COc1ccc(C2CNC(=O)C2)cc1OC1CCCC1` (stereo not shown) [rolipram], the concentration for a half-maximal effect (EC50) in assay [1] (setting [9]) worked out at 2.3 µM.
For the molecule `CCOC(=O)C(CCc1ccccc1)NC(C)C(=O)N1C(C(=O)O)CC2CCCCC21` (stereo not shown) [trandolapril, 1-[2-[(1-ethoxycarbonyl-3-phenyl-propyl)amino]propanoyl]-2,3,3a,4,5,6,7,7a-octahydroindole-2-carboxylic acid], the EC50 in assay [1] (setting [10]) was ~35 µM. Moreover, the “effect on neuronal differentiation” value in assay [1] (agent alone) is reported as “promoted neuronal differentiation”.
In the case of `CCCc1nc(C)c2c(=O)[nH]c(-c3cc(S(=O)(=O)N4CCN(CC)CC4)ccc3OCC)nn12` [vardenafil], the concentration for a half-maximal effect (EC50) in assay [1] (setting [9]) stood at 8.6 µM.
On the same count and under the same terms, with `CSc1ccc(C(=O)c2[nH]c(=O)[nH]c2C)cc1` [enoximone] the figure was 6.8 µM.
`NC1(C(=O)O)CCc2cc(P(=O)(O)O)ccc21` (racemic) [APICA, (RS)-1-amino-5-phosphonoindan-1-carboxylic acid]: the IC50 in assay [4] and in assay [5] was ~30 µM each time. Also, the “activity against Group I or Group III receptors” value in assay [6] is listed as “no appreciable activity”.
In the case of `C[C@H](CS)C(=O)N1CCC[C@H]1C(=O)O` [captopril, 1-[(2S)-3-mercapto-2-methylpropionyl]-1-proline], the EC50 in assay [1] (setting [9]) stood at 3.8 µM. Further, the “effect on neuronal differentiation” value in assay [1] (agent alone) was “promoted neuronal differentiation”.
For `NCC(CC(=O)O)c1ccc(Cl)cc1` (stereo not shown) [baclofen], the EC50 in assay [1] (setting [9]) came to 3.2 µM.
On to `CC(=O)SC[C@@H](C)C(=O)N1CCC[C@H]1C(=O)N[C@@H](Cc1ccccc1)C(=O)O` [alacepril, 1-(D-3-acetylthio-2-methylpropanoyl)-L-prolyl-L-phenylalanine], for which the half-maximal effective concentration (EC50) in assay [1] (setting [9]) is 13 µM. For the same molecule, the “effect on neuronal differentiation” value in assay [1] (agent alone) was “promoted neuronal differentiation”.
As to `CC(C)C(=O)c1c(C(C)C)nn2ccccc12` [ibudilast], the EC50 in assay [1] (setting [9]) is 6.2 µM.
Turning to `NCCCC[C@H](N[C@@H](CCc1ccccc1)C(=O)O)C(=O)N1CCC[C@H]1C(=O)O` [lisinopril, (S)-1-(N(sup 2)-(1-carboxy-3-phenylpropyl)-L-lysyl)-L-proline], the EC50 in assay [1] (setting [9]) turned out to be 9.1 µM. In addition, in assay [1] (agent alone), the “effect on neuronal differentiation” value is “promoted neuronal differentiation”.
As to `N[C@](CC1c2ccccc2Oc2ccccc21)(C(=O)O)[C@H]1C[C@@H]1C(=O)O` [LY341495, (2S)-2-amino-2-(1S,2S-2-carboxycycloprop-1-yl)-3-(xanth-9-yl)propanoic acid], the “activity against KA, AMPA, and NMDA iGlu receptors” value in assay [7] is “substantially inactive”. In assay [8], the “activity against mGlu7 and mGlu8” value was “antagonist activity”.

A word on the EC50: it is the concentration needed to bring the measured effect to its halfway point. For orientation: IC50 means the midpoint of a concentration-inhibition curve.
